Reference: patent US20120220564A1, “SELECTIVE CALCIUM CHANNEL MODULATORS” (Zalicus Pharmaceuticals Ltd., priority 2009, published 2012)

What was measured:
[1] = biological target: T1, α1H (CaV 3.2) (Homo sapiens, UniProt O95180); assay: T-type calcium channel block, whole cell patch clamp; format: cell-based; settings: HEK cells, mainly non-inactivated protocol; values above 10,000 nM represented as 10000
T1 construct: expressed in transfected cells; host or cells: HEK 293
Outline: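 HEK293 cells stably expressing human T-type channels, whole-cell patch clamp; compounds in external solution with 0.1-0.01% DMSO, applied by gravity. Mainly non-inactivating protocol: holding −110 mV, 1 s pre-pulse −100 mV, 50 ms test pulse −40 mV (inactivated protocol uses ~−85 mV pre-pulse); IC50 reported.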

[2] = test system: Rat SNL tactile allodynia; assay: L5/L6 spinal nerve ligation (SNL) Chung pain model, tactile allodynia (von Frey); format: in vivo; settings: for % Antiallodynia (Mean ± SD): 100 mg/kg PO, n = 7-8
Excerpt: The Spinal Nerve Ligation is an animal model representing peripheral nerve injury generating a neuropathic pain syndrome. In this model experimental animals develop the clinical symptoms of tactile allodynia and hyperalgesia. L5/L6 Spinal nerve ligation (SNL) injury was induced using the procedure of Kim and Chung (Kim et al., Pain 50:355-363 (1992)) in male Sprague-Dawley rats (Harlan; Indianapolis, Ind.) weighing 200 to 250 grams.
Anaesthesia was induced with 2% isofluorane in O2 at 2 L/min and maintained with 0.5% isofluorane in O2. Rats were then shaved and aseptically prepared for surgeries. A 2 cm paraspinal incision was made at the level of L4-S2. L4/L5 was exposed by removing the transverse process above the nerves with a small rongeur. The L5 spinal nerve is the larger of the two visible nerves below the transverse process and lies closest to the spine. The L6 spinal nerve is located beneath the corner of the slope bone. A home-made glass Chung rod was used to hook L5 or L6 and a pre-made slip knot of 4.0 silk suture was placed on the tip of the rod just above the nerve and pulled underneath to allow for the tight ligation. The L5 and L6 spinal nerves were tightly ligated distal to the dorsal root ganglion. The incision was closed, and the animals were allowed to recover for 5 days.
Sham control rats underwent the same operation and handling as the experimental animals, but without SNL.
Prior to initiating drug delivery, baseline behavioural testing data is obtained. At selected times after infusion of the Test or Control Article behavioural data can then be collected again.
The assessment of tactile allodynia consisted of measuring the withdrawal threshold of the paw ipsilateral to the site of nerve injury in response to probing with a series of calibrated von Frey filaments (innocuous stimuli). Animals were acclimated to the suspended wire-mesh cages for 30 min before testing. Each von Frey filament was applied perpendicularly to the plantar surface of the ligated paw of rats for 5 sec. A positive response was indicated by a sharp withdrawal of the paw. For rats, the first testing filament is 4.31. Measurements were taken before and after administration of test articles. […] The protocol was repeated until three changes in behaviour were determined (“up and down” method) (Chaplan et al., J. Neurosci. Methods 53:55-63 (1994)). The 50% paw withdrawal threshold was determined as (10^[Xf+kδ])/10,000, where Xf=the value of the last von Frey filament employed, k=Dixon value for the positive/negative pattern, and δ=the logarithmic difference between stimuli. The cut-off values for rats were no less than 0.2 g and no higher than 15 g (5.18 filament); for mice no less than 0.03 g and no higher than 2.34 g (4.56 filament). A significant drop of the paw withdrawal threshold compared to the pre-treatment baseline is considered tactile allodynia.

[3] = test system: 6 Hz psychomotor seizure; assay: 6 Hz psychomotor seizure model of partial epilepsy; format: in vivo, mice; set-up: concentration or dose not given beside the values
Excerpt: Compounds can also be evaluated for the protection against seizures induced by a 6 Hz, 0.2 ms rectangular pulse width of 3 s duration, at a stimulus intensity of 32 mA (CC97) applied to the cornea of male CF1 mice (20-30 g) according to procedures described by Barton et al, “Pharmacological Characterization of the 6 Hz Psychomotor Seizure Model of Partial Epilepsy,” Epilepsy Res. 47(3):217-27 (2001). Seizures are characterised by the expression of one or more of the following behaviours: stun, forelimb clonus, twitching of the vibrissae and Straub-tail immediately following electrical stimulation.

[4] = test system: Lamina I/II spinal cord neurons; assay: Lamina assay, current-clamp recordings in spinal cord slices; format: cell-based, rat; settings: Lamina I and II neurons
Excerpt: Male Wistar rats (P6 to P9 for voltage-clamp and P15 to P18 for current-clamp recordings) were anaesthetized through intraperitoneal injection of Inactin (Sigma). The spinal cord was then rapidly dissected out and placed in an ice-cold solution protective sucrose solution containing (in mM): 50 sucrose, 92 NaCl, 15 D-Glucose, 26 NaHCO3, 5 KCl, 1.25 NaH2PO4, 0.5 CaCl2, 7 MgSO4, 1 kynurenic acid, and bubbled with 5% CO2/95% O2. The meninges, dura, and dorsal and ventral roots were then removed from the lumbar region of the spinal cord under a dissecting microscope. The “cleaned” lumbar region of the spinal cord was glued to the vibratome stage and immediately immersed in ice cold, bubbled, sucrose solution. For current-clamp recordings, 300 to 350 μm parasagittal slices were cut to preserve the dendritic arbour of lamina I neurons, while 350 to 400 μm transverse slices were prepared for voltage-clamped […] channel recordings. Slices were allowed to recover for 1 hour at 35° C. in Ringer solution containing (in mM): 125 NaCl, 20 D-Glucose, 26 NaHCO3, 3 KCl, 1.25 NaH2PO4, 2 CaCl2, 1 MgCl2, 1 kynurenic acid, 0.1 picrotoxin, bubbled with 5% CO2/95% O2. The slice recovery chamber was then returned to room temperature (20 to 22° C.) and all recordings were performed at this temperature.
Neurons were visualized using IR-DIC optics (Zeiss Axioskop 2 FS plus, Gottingen, Germany), and neurons from lamina I and the outer layer of lamina II were selected based on their location relative to the substantia gelatinosa layer. Neurons were patch-clamped using borosilicate glass patch pipettes with resistances of […] Current-clamp recordings of lamina I/II neurons in the intact slice, the external recording solution was the above Ringer solution, while the internal patch pipette solution contained (in mM): 140 KGluconate, 4 NaCl, 10 HEPES, 1 EGTA, 0.5 MgCl2, 4 MgATP, 0.5 Na2GTP, adjusted to pH 7.2 with 5 M KOH and to 290 mOsm with D-Mannitol (if necessary). […]

T1 sequence (O95180 whole entry): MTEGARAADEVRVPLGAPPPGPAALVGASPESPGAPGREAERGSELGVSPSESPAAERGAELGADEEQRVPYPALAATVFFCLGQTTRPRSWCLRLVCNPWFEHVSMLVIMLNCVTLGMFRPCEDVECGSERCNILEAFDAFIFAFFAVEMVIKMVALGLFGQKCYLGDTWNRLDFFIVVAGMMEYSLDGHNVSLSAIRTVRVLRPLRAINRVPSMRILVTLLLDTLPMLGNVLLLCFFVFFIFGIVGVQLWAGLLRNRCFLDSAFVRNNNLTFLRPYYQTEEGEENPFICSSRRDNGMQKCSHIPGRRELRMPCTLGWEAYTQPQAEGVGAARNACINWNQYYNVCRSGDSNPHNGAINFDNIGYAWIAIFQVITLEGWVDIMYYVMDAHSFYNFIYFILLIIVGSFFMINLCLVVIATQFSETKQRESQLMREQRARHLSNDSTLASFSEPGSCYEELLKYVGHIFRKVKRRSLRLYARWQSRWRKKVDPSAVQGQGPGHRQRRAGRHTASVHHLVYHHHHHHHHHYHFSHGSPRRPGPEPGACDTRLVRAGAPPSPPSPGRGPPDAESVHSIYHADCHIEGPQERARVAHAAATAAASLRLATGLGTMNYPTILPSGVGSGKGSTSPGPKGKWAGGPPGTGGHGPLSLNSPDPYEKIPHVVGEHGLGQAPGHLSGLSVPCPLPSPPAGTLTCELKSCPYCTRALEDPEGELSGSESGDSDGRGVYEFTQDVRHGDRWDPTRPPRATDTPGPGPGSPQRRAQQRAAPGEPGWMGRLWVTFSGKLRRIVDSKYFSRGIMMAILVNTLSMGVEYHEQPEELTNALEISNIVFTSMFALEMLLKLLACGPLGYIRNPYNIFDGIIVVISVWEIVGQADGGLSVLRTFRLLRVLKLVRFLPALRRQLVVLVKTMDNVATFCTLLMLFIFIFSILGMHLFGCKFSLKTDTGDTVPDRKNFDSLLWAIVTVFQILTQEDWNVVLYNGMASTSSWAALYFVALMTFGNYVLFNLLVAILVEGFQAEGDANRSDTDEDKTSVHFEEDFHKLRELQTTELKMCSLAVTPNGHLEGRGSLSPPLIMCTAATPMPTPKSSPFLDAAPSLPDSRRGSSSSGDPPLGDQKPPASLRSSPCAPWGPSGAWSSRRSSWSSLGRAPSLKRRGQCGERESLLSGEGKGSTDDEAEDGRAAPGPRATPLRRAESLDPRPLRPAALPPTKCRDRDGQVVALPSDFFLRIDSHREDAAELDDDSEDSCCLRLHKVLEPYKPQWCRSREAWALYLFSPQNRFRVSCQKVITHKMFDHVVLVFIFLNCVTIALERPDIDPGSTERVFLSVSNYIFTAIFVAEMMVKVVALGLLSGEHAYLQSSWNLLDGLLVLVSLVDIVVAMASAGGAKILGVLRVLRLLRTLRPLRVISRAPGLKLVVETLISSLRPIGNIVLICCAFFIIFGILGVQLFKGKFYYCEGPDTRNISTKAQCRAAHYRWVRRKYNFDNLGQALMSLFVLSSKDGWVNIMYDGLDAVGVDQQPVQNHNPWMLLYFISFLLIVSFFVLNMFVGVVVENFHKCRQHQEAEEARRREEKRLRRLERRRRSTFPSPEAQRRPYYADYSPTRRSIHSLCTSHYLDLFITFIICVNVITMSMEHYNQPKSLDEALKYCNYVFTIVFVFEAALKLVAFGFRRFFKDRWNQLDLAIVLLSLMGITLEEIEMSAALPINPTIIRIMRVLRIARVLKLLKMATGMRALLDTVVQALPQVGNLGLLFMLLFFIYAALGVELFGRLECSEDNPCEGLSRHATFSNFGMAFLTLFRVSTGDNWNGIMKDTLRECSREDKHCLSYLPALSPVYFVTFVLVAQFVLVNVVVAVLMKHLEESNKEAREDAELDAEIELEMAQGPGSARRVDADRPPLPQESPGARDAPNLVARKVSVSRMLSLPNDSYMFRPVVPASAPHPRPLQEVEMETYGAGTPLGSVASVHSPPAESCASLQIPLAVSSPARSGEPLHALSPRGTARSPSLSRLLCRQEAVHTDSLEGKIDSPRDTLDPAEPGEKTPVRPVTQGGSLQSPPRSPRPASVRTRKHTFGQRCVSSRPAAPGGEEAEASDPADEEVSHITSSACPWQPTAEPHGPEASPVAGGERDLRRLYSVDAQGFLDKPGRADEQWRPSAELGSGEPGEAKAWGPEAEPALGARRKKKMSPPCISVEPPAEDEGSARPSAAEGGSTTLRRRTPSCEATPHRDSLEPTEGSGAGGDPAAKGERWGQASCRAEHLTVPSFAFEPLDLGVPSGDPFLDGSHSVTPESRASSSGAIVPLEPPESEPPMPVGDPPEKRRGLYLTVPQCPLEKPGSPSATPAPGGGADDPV

## NC1(CC(=O)N2CCC(O)(CC(=O)Nc3cc(C(F)(F)F)cc(C(F)(F)F)c3)CC2)CCCCC1 [Compound 54, 2-(1-(2-(1-aminocyclohexyl)acetyl)-4-hydroxypiperidin-4-yl)-N-(3,5-bis(trifluoromethyl)phenyl)acetamide]
[1]
  IC50: 0.08 µM
[2]; 1 hr
  Rat SNL tactile allodynia (% antiallodynia): 41%
[2]; 2 hr
  Rat SNL tactile allodynia (% antiallodynia): 39%
[2]; 4 hr
  Rat SNL tactile allodynia (% antiallodynia): 45%
[3]; 0.25 hr
  Epilepsy 6 Hz (% Protected): 25%
[3]; 0.5 hr
  Epilepsy 6 Hz (% Protected): 75%
[3]; 1 hr
  Epilepsy 6 Hz (% Protected): 75%
[3]; 2 hr
  Epilepsy 6 Hz (% Protected): 75%
[3]; 4 hr
  Epilepsy 6 Hz (% Protected): 100%

## O=C(CC1CCN(C(=O)[C@H]2CCCCN2)CC1)Nc1cc(C(F)(F)F)cc(C(F)(F)F)c1 [Compound 74]
[4]
  % Spike Change Mean: −53%

## NC1(CC(=O)N2CCC(NC(=O)Nc3cc(C(F)(F)F)cc(C(F)(F)F)c3)CC2)CCCCC1 [Compound 75]
[2]; 1 hr
  Rat SNL tactile allodynia (% antiallodynia): 5%
[2]; 2 hr
  Rat SNL tactile allodynia (% antiallodynia): 3%
[2]; 4 hr
  Rat SNL tactile allodynia (% antiallodynia): 3%

## NCC1(CC(=O)O)CCCCC1 [Gabapentin, gabapentin, reference compound]
[2]; 1 h
  % Antiallodynia (Mean ± SD): 73 ± 35 %
[2]; 2 h
  % Antiallodynia (Mean ± SD): 90 ± 18 %
[2]; 4 h
  % Antiallodynia (Mean ± SD): 15 ± 8%
[2]; second repetition of the study
  anti-allodynia performance compared with first study: performed similarly
